Data: PMC10892984, “Novel Antineoplastic Inducers of Mitochondrial Apoptosis in Human Cancer Cells” (Molecules, 2024)

What was measured:
EKVX [1] = conditions: non-small-cell lung cancer, mutant p53, 48 h
CAKI-1 = conditions: for TGI: CAKI-1, renal cancer, wild-type p53, 48 h; for GI50 / CC50: Homo sapiens, CAKI-1, 48 h; for CC50: read-out: LC50
HOP-92 = assay type: cell-based; conditions: HOP-92, non-small-cell lung cancer, mutant p53, 48 h
DU-145 = conditions: for TGI: DU-145, prostate cancer, mutant p53, 48 h; for GI50 / CC50: Homo sapiens, DU-145, 48 h; for CC50: read-out: LC50
T-47D = conditions: 48 h; for TGI: T-47D, breast cancer, mutant p53; for GI50 / CC50: Homo sapiens, T47D; for CC50: read-out: LC50
EKVX [2] = assay: cells; conditions: Homo sapiens, 48 h, read-out: LC50
SR = conditions: for GI50 / CC50: Homo sapiens, 48 h; for CC50: read-out: LC50; for TGI: leukemia, wild-type p53, 48 h
U251 = conditions: for GI50 / CC50: Homo sapiens, U-251, 48 h; for CC50: read-out: LC50; for TGI: U251, CNS cancer (brain tumor), mutant p53, 48 h
K-562 = conditions: for GI50 / CC50: Homo sapiens, K562, 48 h; for CC50: read-out: LC50; for TGI: K-562, leukemia, mutant p53, 48 h
[3] = Cytotoxicity (CellTiter 96 AQueous One, MTS); assay type: cell-based, African green monkey (grivet) Chlorocebus aethiops; conditions: African green monkey (Chlorocebus aethiops), Vero cells
Method: (§1) The cytotoxicity and human immunodeficiency virus type 1 (HIV-1) strain LAI replication assays were performed in freshly explanted primary human peripheral blood mononuclear cells (PBM cells) according to published procedures. The assays were conducted at least in triplicate and treated statistically (if possible). HIV-1LAI (= HIV-1BRU = LAV-1) was assayed in primary human peripheral blood lymphocyte (PBL) cells in the presence of a drug being evaluated. The parameter for antiviral activity was a reduction in reverse transcriptase (RT) activity in the cell supernatant after Triton X–100-mediated lysis of released virions, as measured using [5α-^3H]dTTP (5α-tritiated thymidine 5′-triphosphate) incorporation into poly(rA)•poly(dT) directed by the primed RNA template poly(rA)•oligo(dT). […] Cytotoxicity on PBL and the other cells (CCRF−CEM, Vero) exerted by the test compounds was determined as described by Stuyver et al. by application of the CellTiter 96® AQueous One Solution Cell Proliferation Assay (Promega Corp., Madison, WI, USA). Briefly, the phenazine ethosulfate (PES)-coupled reduction of the tetrazolium salt 3-(4,5-dimethylthiazol-2-yl)-5-(3-carboxymethoxyphenyl)-2-(4-sulfophenyl)-2H-tetrazolium (MTS) to a purple, water-soluble formazan by living, undamaged cells was measured.

CCRF−CEM cells = assay: Cytotoxicity (CellTiter 96 AQueous One, MTS); assay type: cell-based, human; conditions: Homo sapiens, 1.0 µM, read-out: CCRF–CEM growth inhibition at fixed 1.0 µM concentration
Method: (§2) The cytotoxicity and human immunodeficiency virus type 1 (HIV-1) strain LAI replication assays were performed in freshly explanted primary human peripheral blood mononuclear cells (PBM cells) according to published procedures. The assays were conducted at least in triplicate and treated statistically (if possible). HIV-1LAI (= HIV-1BRU = LAV-1) was assayed in primary human peripheral blood lymphocyte (PBL) cells in the presence of a drug being evaluated. The parameter for antiviral activity was a reduction in reverse transcriptase (RT) activity in the cell supernatant after Triton X–100-mediated lysis of released virions, as measured using [5α-^3H]dTTP (5α-tritiated thymidine 5′-triphosphate) incorporation into poly(rA)•poly(dT) directed by the primed RNA template poly(rA)•oligo(dT). […] The detailed assay methodology was reported by Schinazi et al. as based on an older assay system of Spira et al.. The experiments were conducted in triplicate and treated statistically using regression curve analysis (r^2 coefficient of determination). The RT inhibitor AZT (zidovudine, 3′-azido-3′-deoxythymidine; RETROVIR™) served as a positive control. Cytotoxicity on PBL and the other cells (CCRF−CEM, Vero) exerted by the test compounds was determined as described by Stuyver et al. by application of the CellTiter 96® AQueous One Solution Cell Proliferation Assay (Promega Corp., Madison, WI, USA). Briefly, the phenazine ethosulfate (PES)-coupled reduction of the tetrazolium salt 3-(4,5-dimethylthiazol-2-yl)-5-(3-carboxymethoxyphenyl)-2-(4-sulfophenyl)-2H-tetrazolium (MTS) to a purple, water-soluble formazan by living, undamaged cells was measured.

[4] = Cytotoxicity (CellTiter 96 AQueous One, MTS); assay type: cell-based, human; conditions: human; CCRF−CEM cells
Method: as §2

HIV-1LAI = HIV-1LAI replication reverse transcriptase assay in primary PBM cells; assay type: cell-based, human immunodeficiency virus type 1
Method: as §2

[5] = Cytotoxicity (CellTiter 96 AQueous One, MTS); assay type: cell-based; conditions: human; PBM cells
Method: as §1

| Structure (SMILES) | TGI (EKVX [1]) | TGI (CAKI-1) | TGI (HOP-92) | TGI (DU-145) | TGI (T-47D) | GI50 (CAKI-1) | CC50 (CAKI-1) | GI50 (SR) | CC50 (SR) | TGI (SR) | GI50 (U251) | CC50 (U251) | TGI (U251) | GI50 (K-562) | CC50 (K-562) | TGI (K-562) | GI50 (DU-145) | CC50 (DU-145) | GI50 (T-47D) | CC50 (T-47D) | further results |
| --- | --- | --- | --- | --- | --- | --- | --- | --- | --- | --- | --- | --- | --- | --- | --- | --- | --- | --- | --- | --- | --- |
| COc1cc2c(c(OC)c1OC)-c1ccc(NNC(=S)N(Cc3cccc(C[N+](Cc4cccc(CNC56CC7CC(CC(C7)C5)C6)c4)(Cc4cccc(CNC56CC7CC(CC(C7)C5)C6)c4)Cc4cccc(CN(C(=S)NNc5ccc6c(cc5=O)C(NC(C)=O)CCc5cc(OC)c(OC)c(OC)c5-6)C56CC7CC(CC(C7)C5)C6)c4)c3)C34CC5CC(CC(C5)C3)C4)c(=O)cc1C(NC(C)=O)CC2 [Compound 3, [(bis{3-[(tricyclo[3.3.1.1^3,7]decan-1-ylamino)methyl]benzyl}ammonio)bis(methanediylbenzene-3,1-diylmethanediyl)]di-2-[(aS,7S)-7-(acetylamino)-1,2,3-trimethoxy-9-oxo-5,6,7,9-tetrahydrobenzo[a]heptalen-10-yl]-N-(tricyclo[3.3.1.1^3,7]decan-1-yl)hydrazinecarbothioamide chloride pentahydrate] | 8.46 µM | 7.37 µM | 4.08 µM | 7.10 µM | 9.40 µM |  |  |  |  |  |  |  |  |  |  |  |  |  |  |  |  |
| COc1cc2c(c(OC)c1OC)-c1ccc(NNC(N)=S)c(=O)cc1C(NC(C)=O)CC2 [Compound 2, N-[(aS,7S)-10-(2-carbamothioylhydrazinyl)-1,2,3-trimethoxy-9-oxo-5,6,7,9-tetrahydrobenzo[a]heptalen-7-yl]acetamide monohydrate × ⅔ (ethyl acetate)] | > 100 µM | > 100 µM |  | 1.44 µM | > 100 µM | 7.12 µM | > 100 µM | 0.279 µM | > 100 µM | > 100 µM | 0.479 µM | > 100 µM | > 100 µM | 0.362 µM | > 100 µM | > 100 µM | 0.341 µM | > 100 µM | > 100 µM | > 100 µM | CC50 (EKVX [2]): > 100 µM |
| c1cc(CNC23CC4CC(CC(C4)C2)C3)cc(C[N+](Cc2cccc(CNC34CC5CC(CC(C5)C3)C4)c2)(Cc2cccc(CNC34CC5CC(CC(C5)C3)C4)c2)Cc2cccc(CNC34CC5CC(CC(C5)C3)C4)c2)c1 (stereo not shown) [Compound 1, tetrakis{3-[(tricyclo[3.3.1.1^3,7]decan-1-ammonio)methyl]benzyl}ammonium pentachloride] |  | 4.70 µM | 3.06 µM | 4.61 µM | 6.72 µM | 1.28 µM | 15.4 µM | 1.49 µM | > 50 µM | > 50 µM | 1.12 µM | 8.79 µM | 2.69 µM | 1.46 µM | > 50 µM | 36.2 µM | 1.47 µM | 15.2 µM | 1.34 µM | 38 µM | CC50 [3]: 1.8 µM; inhibition at 1 µM (CCRF−CEM cells): 60%; CC50 [4]: < 1 µM; EC50 (HIV-1LAI; Human immunodeficiency virus 1, PBMC, primary human PBM cells, reverse transcriptase activity in supernatant, read-out: Anti-HIV-1LAI activity EC50): 0.56 µM; EC90 (HIV-1LAI; Human immunodeficiency virus 1, PBMC, primary human PBM cells, reverse transcriptase activity in supernatant, read-out: Anti-HIV-1LAI activity EC90): 4.3 µM; SI50, selectivity index CC50/EC50 (HIV-1LAI; PBM cells): 3.9; CC50 [5]: 2.2 µM; TGI (HL-60 (TB); HL-60 (TB), leukemia, mutant p53, 48 h): 2.71 µM; GI50 (HL-60 (TB); Homo sapiens, HL-60, 48 h): 0.87 µM; GI50 (HOP-92; Homo sapiens): 1.14 µM; CC50 (HOP-92; Homo sapiens, read-out: LC50 (the source's name)): 12.6 µM |
